Structures are written as SMILES.

The experiment deals with T1, hOX2R (Homo sapiens, UniProt O43614).
T1 construct: expressed in transfected cells; host or cells: CHO cells (G418 selection)
T1 sequence (O43614 1-444): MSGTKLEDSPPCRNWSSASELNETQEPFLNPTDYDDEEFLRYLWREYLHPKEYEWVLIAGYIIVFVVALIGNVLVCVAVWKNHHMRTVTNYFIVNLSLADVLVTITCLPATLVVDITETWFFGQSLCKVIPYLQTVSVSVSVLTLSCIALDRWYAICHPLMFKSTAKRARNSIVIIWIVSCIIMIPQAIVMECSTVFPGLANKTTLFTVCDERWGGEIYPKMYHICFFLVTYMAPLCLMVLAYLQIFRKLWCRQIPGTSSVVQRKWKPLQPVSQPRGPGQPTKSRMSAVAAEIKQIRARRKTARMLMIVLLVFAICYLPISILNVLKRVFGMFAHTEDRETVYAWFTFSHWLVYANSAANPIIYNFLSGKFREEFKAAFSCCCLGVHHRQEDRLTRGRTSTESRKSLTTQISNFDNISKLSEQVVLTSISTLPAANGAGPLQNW
Kind of experiment: hOX2R IPone assay (orexin receptor agonism). Type of experiment: cell-based. The settings on record: IPone readout; for hOX2R_Ipone max %act: maximal activation; for EC50: orexin receptor agonist, read-out: hOX2R_IPone EC50.

The EC50 is the concentration needed to bring the measured effect to its halfway point. For the molecule `CCN1C(=O)N[C@@H](CCC(F)(F)F)C/C=C\COc2nc(cn3ncnc23)-c2cc(ncc2OC)C1C(F)(F)F` (stereo partly drawn) [Example 33, (16S,18Z)-13-ethyl-8-methoxy-12-(trifluoromethyl)-16-(3,3,3-trifluoropropyl)-12,13,15,16,17,20-hexahydro-14H-6,22-(azeno)-11,7-(metheno) [1,2,4]triazolo[5,1-c] [1,4,10,13,15]oxatetra-azacycloicosin-14-one], the hOX2R_Ipone max %act is given as 98.8% and the half-maximal effective concentration (EC50) amounted to 335 nM.
For `CCN1C(=O)NC(CCOC)CCCCCOc2nc(cn3ccnc23)-c2cc(ncc2OC)[C@H]1C` (single isomer, unassigned) [Example 56B], the hOX2R_Ipone max %act worked out at 101% and the EC50 was determined as 1 nM.
For `CCN1Cc2cnc(OC)c(c2)-c2nc(c3nccn3n2)OCCCCC[C@H](CCC(C)(F)F)NC1=O` [Example 125, (R,E)-7-(3,3-difluorobutyl)-4-ethyl-22-methoxy-13-oxa-4,6-diaza-1(2,4)-imidazo[2,1-f][1,2,4]triazina-2(3,5)-pyridinacyclotridecaphan-5-one] the same measures were 100.2% and 1.41 nM.
For `CCN1C(=O)NC(CCC(F)F)CCCCCOc2nc(cn3ccnc23)-c2cc(ncc2C2CC2)[C@H]1C` (stereo partly drawn) [Example 197, (3R,E)-25-cyclopropyl-7-(3,3-difluoropropyl)-4-ethyl-3-methyl-13-oxa-4,6-diaza-1(6,8)-imidazo[1,2-a]pyrazina-2(4,2)-pyridina-cyclotridecaphan-5-one] the same measures were 105.4% and 1.3 nM.
For `CCN1C(=O)N[C@@H](CCC(F)(F)F)CCCCCOc2nc(nc3ccnn23)-c2cc(ncc2OC)[C@H]1C` [Example 98, (11R,15R)-12-ethyl-7-methoxy-11-methyl-15-(3,3,3-trifluoropropyl)-11,12,15,16,17,18,19, 20-octahydro-5,22-(azeno)-10,6-(metheno)pyrazolo[1,5-c][1,3,5,10,13,15] oxapentaazacycloheni-cosin-13(14H)-one] the same measures were 101.2% and 8.6 nM.
For the molecule `CCN1C(=O)NCCOCCCOc2nc(cn3ccnc23)-c2cc(ncc2OC)[C@H]1C` [Example 8, (12R)-13-ethyl-8-methoxy-12-methyl-12,13,16,17,20,21-hexahydro-19H-6,23-(azeno)-11,7-(metheno)imidazo[1,2-o][1,18,4,6,9,15]dioxatetra-azacyclohenicosin-14(15H)-one], the hOX2R_Ipone max %act was determined as 100.2% and the EC50 was 13.6 nM.
Regarding `CCN1C(=O)NCCCOCCOc2nc(cn3ccnc23)-c2cccc(c2)[C@H]1C` [Example 14, (12R)-13-ethyl-12-methyl-12,13,15,16,17,18, 20,21-octahydro-14H-6,23-(azeno)-11,7-(metheno)imidazo [2,1-f][1,4,7,16, 18]dioxatriaza-cyclohenicosin-14-one], the hOX2R_Ipone max %act is on record as 101% and the EC50 was found to be 9.7 nM.
`CCN1C(=O)N[C@@H](CCC(F)(F)F)CCCCCOc2cc(cn3ccnc23)-c2cc(ncn2)C1C` (single isomer, unassigned) [Example 96A]: the hOX2R_Ipone max %act turned out to be 100.3% and the EC50 was 11.9 nM.
With `CCN1C(=O)NC(CCC(F)(F)F)CCOCCOc2cn3ncnc3c(n2)-c2ccnc(c2)C1C` [Example 136, (3R,7S,E)-4-ethyl-3-methyl-7-(3,3,3-trifluoropropyl)-10,13-dioxa-4,6-diaza-1(6,8)-[1,2,4]triazolo[1,5-a]pyrazina-2(4,2)-pyridinacyclotridecaphan-5-one], the hOX2R_Ipone max %act was 101.7% and the EC50 was 0.724 nM.
With `C[C@@H]1c2cc(ccn2)-c2cn3ccnc3c(n2)OCCCCC[C@H](CCC(F)(F)F)NC(=O)N1C` [Example 158, (3R,7R,E)-3,4-dimethyl-7-(3,3,3-trifluoropropyl)-13-oxa-4,6-diaza-1(6,8)-imidazo[1,2-a]pyrazina-2(4,2)-pyridinacyclotridecaphan-5-one], the hOX2R_Ipone max %act was found to be 102% and the 50% effective concentration (EC50) came to 3.87 nM.
Consider `CCN1C(=O)NC(CCC(F)(F)F)C(C)/C=C\COc2nc(cn3ccnc23)-c2cccc(c2)[C@H]1C` (single isomer, unassigned) [Example 41C], for which the hOX2R_Ipone max %act amounted to 98.9% and the EC50 turned out to be 23.4 nM.
As for `CCN1C(=O)NC(CCC(F)(F)F)C(C)CCCOc2nc(cn3ccnc23)-c2cccc(c2)[C@H]1C` (single isomer, unassigned) [Example 42B], the hOX2R_Ipone max %act is on record as 99.1% and the EC50 was 156 nM.
For `CCN1C(=O)N[C@@H](CCC(C)(F)F)CCOCCOc2nc(cn3ncnc23)-c2cc(ncc2C)[C@H]1C` [Example 129, (3R,7S,E)-7-(3,3-difluorobutyl)-4-ethyl-25,3-dimethyl-10,13-dioxa-4,6-diaza-1(6,8)-[1,2,4]triazolo[1,5-a]pyrazina-2(4,2)-pyridinacyclotridecaphan-5-one] the same measures were 100.2% and 1.49 nM.
In the case of `CCN1C(=O)N[C@@H](CCC(F)(F)F)CCCCOc2nc(cn3ncnc23)-c2cc(ncc2OC)C1C(F)(F)F` (single isomer, unassigned) [Example 34B], the hOX2R_Ipone max %act is 101.1% and the EC50 came to 16.4 nM.
For `CCN1C(=O)N[C@@H](CCC(F)(F)F)CCCCCCc2cc(cn3ccnc23)-c2nc(ccc2OC)[C@H]1C` [Example 106, (12R,16R)-13-ethyl-8-methoxy-12-methyl-16-(3,3,3-trifluoropropyl)-12,13,15,16,17,18,19, 20,21,22-decahydro-14H-11,7-(azeno)-6,23-(metheno) imidazo[1,2-1][1,3,12] triazacyclohenicosin-14-one] the same measures were 99.7% and 1.7 nM.
For `CCN1C(=O)N[C@@H](CCC(F)(F)F)CCOCCOc2cc(cn3ncnc23)-c2cc(ncc2OC)[C@H]1C` [Example 150, (3R,7S,E)-4-ethyl-25-methoxy-3-methyl-7-(3,3,3-trifluoropropyl)-10,13-dioxa-4,6-diaza-1(6,8)-[1,2,4]triazolo[1,5-a]pyridina-2(4,2)-pyridinacyclotridecaphan-5-one] the same measures were 103% and 2.43 nM.
For `CCN1C(=O)NC(C)/C=C/CC(F)(F)COc2cn3ccnc3c(n2)-c2cc(ncc2OC)[C@H]1C` (stereo partly drawn) [Example 220, (1^7E,3R,8E)-4-ethyl-11,11-difluoro-25-methoxy-3,7-dimethyl-13-oxa-4,6-diaza-1(6,8)-imidazo[1,2-a]pyrazina-2(4,2)-pyridinacyclotridecaphan-8-en-5-one] the same measures were 108.5% and 12.1 nM.
Turning to `CCN1C(=O)NCCCCCCOc2nc(cn3ccnc23)-c2cc(ncc2OC)[C@H]1C` [Example 85, (12R)-13-ethyl-8-methoxy-12-methyl-12,13,16,17,18,19,20, 21-octahydro-6,23-(azeno)-11,7-(metheno)imidazo[2,1-c][1,4,10,13,15] oxatetraazacycloheni-cosin-14(15H)-one], the hOX2R_Ipone max %act came out at 100.5% and the EC50 worked out at 5.1 nM.

The values above are taken from US12686690B2, “Macrocyclic urea orexin receptor agonists” (Merck Sharp & Dohme LLC, priority 2020, dated 2026).
